{"source": "patent US20230118682A1", "about": "“MODIFIED J-AGGREGATES AND CONJUGATES THEREOF” (GEORGE MASON UNIVERSITY, priority 2021, published 2023)", "key": {"in vivo": {"experiment": "in vivo", "experimental": "(§1) We first acquired multiwavelength images of microcuvette tubes containing 0.4 mM of ICG dye or RGD-JAAZ particles to evaluate the PA spectra of both contrast agents. […] For in vivo imaging experiments, multispectral PAI were acquired in two female nu/nu nude mice at various timepoints (0, 10, 90 min) following tail-vein administration of ICG dye and RGD-JAAZ particles (FIGS. 39A-39D). A pre-injection baseline PA signal at 895 nm was also acquired for reference (FIG. 39B). […] Molecular maps were generated from a linear spectral unmixing of the multiwavelength PA images using previously reported spectra for hemoglobin and the measured spectra of the RGD-JAAZ particles at their injection concentration."}, "[1]": {"experiment": "Fluorescence measurements", "assay_type": "physicochemical", "details": "excitation 720 nm, emission 770-850 nm", "experimental": "Fluorescence measurements: Fluorescence intensity of different concentrations of free ICG dye and J-aggregates was recorded using a Tecan Safire^2™ (Mannendorf, Switzerland) fluorescence microplate reader. Both free ICG dye and J-aggregate particles were excited at 720 nm with an emission at 770 nm. The fluorescence emission spectrum was recorded from 770 to 850 nm with a step size of 2 nm."}, "[2]": {"experiment": "Photoacoustic signal relative to whole blood", "design": "species or system sheep", "details": "20 μM, excited at 895 nm, PTFE tubing", "experimental": "Photoacoustic Measurement: The 96-well plate was secured to the bottom of a plastic water reservoir. The reservoir was filled with deionized water, completely submerging the sample. For comparison of smaller volumes, 2-inch segments of 24-gauge PTFE tubing ([…]) was filled with various samples. The tubes were placed in a clear acrylic chamber submerging the samples in deionized water. A single element piezoelectric 35 MHz or 5 MHz focused transducer (V326, Olympus, Mass., USA) was fixed at 12 mm or 45 mm above each sample with their functional element submerged in deionized water. […] The photoacoustic signal recorded from the transducer is sent to a 20/40db amplifier (HVA-200M, Femto) from there the signal is recorded through a lock-in amplifier (Zurich Instruments, Zurich, Switzerland) triggered on each laser pulse using a photodiode placed near the laser source. […] The absolute amplitude of each waveform was calculated, averaged, and normalized to the signal recorded from India ink or whole sheep's blood containing anticoagulant.\nTo explore the possibility of using JAAZ in vivo, the photoacoustic signal was compared to whole blood. […] PA signals were recorded from each sample and the signal amplitude was normalized to the whole-blood PA-signal amplitude (FIG. 5D). […]\nThe in-vitro photoacoustic (PA) properties of the N-JAAZ particles were further evaluated. […]"}, "[3]": {"experiment": "Phantom PA spectra on TriTom imaging system", "details": "0.4 mM in microcuvette tubes", "experimental": "as §1"}}, "note": "Several values for one entry are separate records, joined by “and”; a condition that tells them apart may be missing. Equal entries are not always repeated.", "data": [{"smiles": "CC1(C)C(/C=C/C=C/C=C/C=C2\\N(CCCCS(=O)(=O)O)c3ccc4ccccc4c3C2(C)C)=[N+](CCCCS(=O)(=O)[O-])c2ccc3ccccc3c21", "note": "[ICG, Indocyanine Green]", "values": [{"measurement": "Contrast-to-noise ratio", "setting": "in vivo; blood vessels, 90-minutes post-injection, n=2", "result": 1.59}, {"measurement": "half-life", "setting": "in vivo; female, nu/nu nude, mouse, in vivo", "result": "1.19 ± 0.45", "unit": "min"}, {"measurement": "fluorescence emission", "setting": "[1]", "result": "recordable fluorescence intensity"}, {"measurement": "PA signal relative to whole blood", "setting": "[2]", "result": "~0.03", "unit": "x"}, {"measurement": "peak PA signal wavelength (phantom)", "setting": "[3]", "result": "740 nm and 780 nm"}]}]}
